# According to patent US8178506B2, “Oligomeric compounds and compositions for use in modulation of small non-coding RNAs” (Regulus Therapeutics Inc., priority 2003, dated 2012):
# In the oligonucleotide strings, read from the 5' end, every base follows the letter of its sugar. An asterisk marks phosphorothioate; unmarked linkages are phosphodiester. Other units and linkages are bracketed, terminal groups are in braces. A string of capitals states the bases alone. e = 2'-O-(2-methoxyethyl) (MOE); [5mC] = 5-methylcytosine; d = 2'-deoxy (DNA)
# Tested on: T47D cells
# Test: Caspase-3 activity assay (apoptosis) in T47D cells
# Conditions: T47D cells, 48 hours; for Fold Increase over UTC (caspase-3 activity, apoptosis): 200 nM oligomeric compound; for Fold Increase over UTC (caspase activity): 200 nM, relative to untreated control
substance,measurement,setting,value
328401 (antisense eG*e[5mC]*e[5mC]*e[5mC]*eT*d[5mC]*dG*dA*d[5mC]*dG*dA*dA*dA*dA*d[5mC]*e[5mC]*eG*eA*e[5mC]*eT) [compound 328401],"Fold Increase over UTC (caspase-3 activity, apoptosis)",experiment of Table 12,0.8 fold
328402 (antisense eT*eT*eG*eA*eA*d[5mC]*dT*d[5mC]*d[5mC]*dA*dT*dG*d[5mC]*d[5mC]*dA*e[5mC]*eA*eA*eG*eG) [compound 328402],"Fold Increase over UTC (caspase-3 activity, apoptosis)",experiment of Table 10,1.2 fold
328404 (antisense eG*eT*eA*eG*eA*dT*d[5mC]*dT*d[5mC]*dA*dA*dA*dA*dA*dG*e[5mC]*eT*eA*e[5mC]*e[5mC]) [compound 328404],"Fold Increase over UTC (caspase-3 activity, apoptosis)",experiment of Table 11,0.9 fold
328405 (antisense e[5mC]*eT*eG*eA*eA*d[5mC]*dA*dG*dG*dG*dT*dA*dA*dA*dA*eT*e[5mC]*eA*e[5mC]*eT) [compound 328405],Fold Increase over UTC (caspase activity),,1.0
328406 (antisense eA*eG*e[5mC]*eA*eA*dG*dT*d[5mC]*dT*dA*d[5mC]*dT*d[5mC]*d[5mC]*dT*e[5mC]*eA*eG*eG*eG) [compound 328406],"Fold Increase over UTC (caspase-3 activity, apoptosis)",experiment of Table 11,1.0 fold
328407 (antisense eA*eA*eT*eG*eG*dA*dG*d[5mC]*d[5mC]*dA*dA*dG*dG*dT*dG*e[5mC]*eT*eG*e[5mC]*e[5mC]) [compound 328407],"Fold Increase over UTC (caspase-3 activity, apoptosis)",experiment of Table 11,1.2 fold
328408 (antisense eT*eA*eG*eA*e[5mC]*dA*dA*dA*dA*dA*d[5mC]*dA*dG*dA*d[5mC]*eT*e[5mC]*eT*eG*eA) [compound 328408],"Fold Increase over UTC (caspase-3 activity, apoptosis)",experiment of Table 10,0.9 fold
328409 (antisense eG*e[5mC]*eT*eA*eG*dT*dG*dA*d[5mC]*dA*dG*dG*dT*dG*d[5mC]*eA*eG*eA*e[5mC]*eA) [compound 328409],"Fold Increase over UTC (caspase-3 activity, apoptosis)",experiment of Table 10,0.7 fold
328410 (antisense eG*eG*eG*e[5mC]*e[5mC]*dT*dA*dT*d[5mC]*d[5mC]*dA*dA*dA*dG*dT*eG*eA*e[5mC]*eA*eG) [compound 328410],"Fold Increase over UTC (caspase-3 activity, apoptosis)",experiment of Table 11,1.5 fold
328411 (antisense eT*eA*e[5mC]*e[5mC]*eT*d[5mC]*dT*dG*d[5mC]*dA*dG*dT*dA*dT*dT*e[5mC]*eT*eA*e[5mC]*eA) [compound 328411],"Fold Increase over UTC (caspase-3 activity, apoptosis)",experiment of Table 11,0.8 fold
328412 (antisense eT*eT*eT*eA*e[5mC]*dT*d[5mC]*dA*dT*dA*d[5mC]*d[5mC]*dT*d[5mC]*dG*e[5mC]*eA*eA*e[5mC]*e[5mC]) [compound 328412],"Fold Increase over UTC (caspase-3 activity, apoptosis)",experiment of Table 12,1.2 fold
328413 (antisense eA*eA*eT*eT*eG*dT*dA*dT*dG*dA*d[5mC]*dA*dT*dT*dA*eA*eA*eT*e[5mC]*eA) [compound 328413],"Fold Increase over UTC (caspase-3 activity, apoptosis)",experiment of Table 11,0.8 fold
328414 (antisense e[5mC]*eT*eT*e[5mC]*eA*dA*dG*dT*dG*d[5mC]*dA*dG*d[5mC]*d[5mC]*dG*eT*eA*eG*eG*e[5mC]) [compound 328414],"Fold Increase over UTC (caspase-3 activity, apoptosis)",experiment of Table 12,0.9 fold
328416 (antisense eA*e[5mC]*eA*eT*eT*dG*d[5mC]*dT*dA*dT*d[5mC]*dA*dT*dA*dA*eG*eA*eG*e[5mC]*eT) [compound 328416],Fold Increase over UTC (caspase activity),,0.9
328418 (antisense eA*eG*eT*eG*eT*d[5mC]*dT*d[5mC]*dA*dT*d[5mC]*dG*d[5mC]*dA*dA*eA*e[5mC]*eT*eT*eA) [compound 328418],"Fold Increase over UTC (caspase-3 activity, apoptosis)",experiment of Table 12,1.0 fold
328420 (antisense eG*e[5mC]*eT*eG*eA*dT*dT*dA*d[5mC]*dG*dA*dA*dA*dG*dA*e[5mC]*eA*eG*eG*eA) [compound 328420],Fold Increase over UTC (caspase activity),,1.0
328422 (antisense eG*eA*eG*eG*eA*dT*dG*dT*d[5mC]*dT*dG*dT*dG*dA*dA*eT*eA*eG*e[5mC]*e[5mC]) [compound 328422],"Fold Increase over UTC (caspase-3 activity, apoptosis)",experiment of Table 10,1.0 fold
328425 (antisense eG*eA*e[5mC]*e[5mC]*eT*dG*d[5mC]*dT*dA*d[5mC]*dT*d[5mC]*dA*d[5mC]*dT*e[5mC]*eT*e[5mC]*eG*eT) [compound 328425],"Fold Increase over UTC (caspase-3 activity, apoptosis)",experiment of Table 10,0.8 fold
328426 (antisense eG*eG*eT*eT*eG*dG*d[5mC]*d[5mC]*dG*d[5mC]*dA*dG*dA*d[5mC]*dT*e[5mC]*eG*eT*eA*e[5mC]) [compound 328426],"Fold Increase over UTC (caspase-3 activity, apoptosis)",experiment of Table 11,1.3 fold
328427 (antisense eG*eA*eT*eG*eT*d[5mC]*dA*d[5mC]*dT*dG*dA*dG*dG*dA*dA*eA*eT*e[5mC]*eA*e[5mC]) [compound 328427],"Fold Increase over UTC (caspase-3 activity, apoptosis)",experiment of Table 11,0.8 fold
328430 (antisense e[5mC]*e[5mC]*eG*eG*e[5mC]*dT*dA*dT*dT*dG*dA*dG*dT*dT*dA*eT*eG*eT*eA*e[5mC]) [compound 328430],"Fold Increase over UTC (caspase-3 activity, apoptosis)",experiment of Table 12,1.3 fold
328431 (antisense eA*e[5mC]*e[5mC]*eT*e[5mC]*dT*d[5mC]*dA*dG*dG*dA*dA*dG*dA*d[5mC]*eG*eG*eA*e[5mC]*eT) [compound 328431],"Fold Increase over UTC (caspase-3 activity, apoptosis)",experiment of Table 10,0.9 fold
328432 (antisense eG*eA*eG*e[5mC]*eA*dT*dG*d[5mC]*dA*dA*d[5mC]*dA*d[5mC]*dT*d[5mC]*eT*eG*eT*eG*e[5mC]) [compound 328432],"Fold Increase over UTC (caspase-3 activity, apoptosis)",experiment of Table 12,0.6 fold
328433 (antisense e[5mC]*e[5mC]*eT*e[5mC]*e[5mC]*dT*dT*dG*dT*dG*dG*dG*d[5mC]*dA*dA*eA*eA*eT*e[5mC]*e[5mC]) [compound 328433],Fold Increase over UTC (caspase activity),,1.0
328435 (antisense eT*e[5mC]*eT*eA*eA*dG*dG*dG*dG*dT*d[5mC]*dA*d[5mC]*dA*dG*eA*eA*eG*eG*eT) [compound 328435],"Fold Increase over UTC (caspase-3 activity, apoptosis)",experiment of Table 11,1.3 fold
328637 (eG*eG*eT*eT*e[5mC]*d[5mC]*dT*dA*dA*dT*dT*dA*dA*dA*d[5mC]*eA*eA*e[5mC]*e[5mC]*e[5mC]; antisense) [compound 328637],"Fold Increase over UTC (caspase-3 activity, apoptosis)",experiment of Table 11,1.0 fold
328638 (e[5mC]*e[5mC]*eG*eA*eG*dG*dG*dT*d[5mC]*dT*dA*dA*d[5mC]*d[5mC]*d[5mC]*eA*eG*e[5mC]*e[5mC]*e[5mC]; antisense) [compound 328638],"Fold Increase over UTC (caspase-3 activity, apoptosis)",experiment of Table 11,0.8 fold
328639 (eG*eA*e[5mC]*eT*eA*d[5mC]*dT*dG*dT*dT*dG*dA*dG*dA*dG*eG*eA*eA*e[5mC]*eA; antisense) [compound 328639],"Fold Increase over UTC (caspase-3 activity, apoptosis)",experiment of Table 11,0.8 fold
328640 (eT*e[5mC]*eT*e[5mC]*e[5mC]*dT*dT*dG*dG*dG*dT*dG*dT*d[5mC]*d[5mC]*eT*e[5mC]*e[5mC]*eT*e[5mC]; antisense) [compound 328640],"Fold Increase over UTC (caspase-3 activity, apoptosis)",experiment of Table 12,0.9 fold
328641 (eT*eG*e[5mC]*eT*eG*dA*d[5mC]*dT*dG*d[5mC]*dT*d[5mC]*dG*d[5mC]*d[5mC]*e[5mC]*eT*eT*eG*e[5mC]; antisense) [compound 328641],"Fold Increase over UTC (caspase-3 activity, apoptosis)",experiment of Table 12,1.1 fold
328642 (eA*e[5mC]*eT*e[5mC]*e[5mC]*d[5mC]*dA*dG*dG*dG*dT*dG*dT*dA*dA*e[5mC]*eT*e[5mC]*eT*eA; antisense) [compound 328642],"Fold Increase over UTC (caspase-3 activity, apoptosis)",experiment of Table 12,1.0 fold
328643 (e[5mC]*eA*eT*eG*eA*dA*dG*dA*dA*dA*dG*dA*d[5mC]*dT*dG*eT*eA*eG*e[5mC]*e[5mC]; antisense) [compound 328643],Fold Increase over UTC (caspase activity),,0.9
